Values quoted from earlier work, collected in article PMC7904743, “WIDOCK: a reactive docking protocol for virtual screening of covalent inhibitors” (Journal of Computer-Aided Molecular Design, 2021).
Read-outs that look alike come from different tables or passages of the source.

Columns and labels:
OTUB2 = conditions: experimental actives if % labeling higher than 50%; cited from earlier work
NUDT7 = conditions: protein labeling at 200 μM; experimental actives if % labeling higher than 50%; cited from earlier work
[1] = thiol reactivity, cited from earlier work
[2] = natural log of average rate constant k
[3] = natural logarithm of average rate constant

Compound | OTUB2 % labeling (OTUB2) [%] | NUDT7 % labeling (NUDT7) [%] | ln(avg k) [1, 2] | ln(avg k) [1, 3]
O=C(CCl)Nc1cc2[nH]c(=O)[nH]c2cc1Br [PCM-0102388, O=C(CCl)Nc1cc2[nH]c(=O)[nH]c2cc1Br] | 56 | 0 | -15.369 | -15.369
O=C(Nc1ccccc1O)C1CCN(C(=O)CCl)CC1 [PCM-0102389, O=C(Nc1ccccc1O)C1CCN(C(=O)CCl)CC1] | 14 | 10 | -15.332 | -15.332
Cc1ccccc1C(C)NC(=O)CCl (stereo not shown) [PCM-0102390, Cc1ccccc1C(C)NC(=O)CCl] | 26 | 10 | -16.582 | -16.582
O=C(CCl)NCC(=O)N1CCCC1 [PCM-0102391, O=C(CCl)NCC(=O)N1CCCC1] | 0 | 0 | -17.246 | -17.246
O=C(CCl)Nc1ccc([N+](=O)[O-])cc1Cl [PCM-0102392, O=C(CCl)Nc1ccc([N+](=O)[O-])cc1Cl] | 21 | 16 | -15.878 | -15.878
O=C(CCl)N1CCCC1c1cccs1 (stereo not shown) [PCM-0102393, O=C(CCl)N1CCCC1c1cccs1] | 0 | 36 | -15.246 | -15.246
Cc1cc(C)cc(NC(=O)CCl)c1 [PCM-0102394, Cc1cc(C)cc(NC(=O)CCl)c1] | 22 | 0 | -15.891 | -15.891
N#Cc1ccccc1S(=O)(=O)N1CCN(C(=O)CCl)CC1 [PCM-0102395, N#Cc1ccccc1S(=O)(=O)N1CCN(C(=O)CCl)CC1] | 0 | 28 | -15.498 | -15.498
O=C(CCl)Nc1cccc2ccccc12 [PCM-0102396, O=C(CCl)Nc1cccc2ccccc12] | 54 | 12 | -16.060 | -16.060
O=C(CCl)N1CCN(Cc2ccc3c(c2)OCO3)CC1 [PCM-0102397, O=C(CCl)N1CCN(Cc2ccc3c(c2)OCO3)CC1] | 0 | 0 | -15.445 | -15.445
Cc1ccc(C)c(NC(=O)CCl)c1 [PCM-0102398, Cc1ccc(C)c(NC(=O)CCl)c1] | 0 | 0 | -16.327 | -16.327
Cc1ccc(CN(C)C(=O)CCl)o1 [PCM-0102399, Cc1ccc(CN(C)C(=O)CCl)o1] | 0 | 5 | -15.728 | -15.728
O=C(CCl)Nc1ccc(C(=O)O)cc1 [PCM-0102400, O=C(CCl)Nc1ccc(C(=O)O)cc1] | 0 | 0 | -16.430 | -16.430
CN(Cc1ccc(Br)cc1)C(=O)CCl [PCM-0102401, CN(Cc1ccc(Br)cc1)C(=O)CCl] | 0 | 58 | -15.733 | -15.733
CC(NC(=O)CCl)C12CC3CC(CC(C3)C1)C2 (stereo not shown) [PCM-0102402, CC(NC(=O)CCl)C12CC3CC(CC(C3)C1)C2] | 24 | 7 | -17.061 | -17.061
O=C(CCl)NC1C2CC3CC(C2)CC1C3 (stereo not shown) [PCM-0102404, O=C(CCl)NC1C2CC3CC(C2)CC1C3] | 33 | 0 | -16.228 | -16.228

Compound | OTUB2 % labeling (OTUB2) [%] | NUDT7 % labeling (NUDT7) [%] | ln(avg k) [1, 2] | ln(avg k) [1, 3]
O=C(CCl)N1CCN(C2CCS(=O)(=O)C2)CC1 (stereo not shown) [PCM-0102405, O=C(CCl)N1CCN(C2CCS(=O)(=O)C2)CC1] | 0 | 0 | -15.476 | -15.476
O=C(CCl)Nc1ccc([N+](=O)[O-])cc1C(F)(F)F [PCM-0102406, O=C(CCl)Nc1ccc([N+](=O)[O-])cc1C(F)(F)F] | 0 | 0 | -16.390 | -16.390
CS(=O)(=O)c1cccc(NC(=O)CCl)c1 [PCM-0102407, CS(=O)(=O)c1cccc(NC(=O)CCl)c1] | 33 | 0 | -15.426 | -15.426
O=C(CCl)Nc1ccc2c(c1)OCCCO2 [PCM-0102409, O=C(CCl)Nc1ccc2c(c1)OCCCO2] | 23 | 10 | -15.744 | -15.744
COc1cccc(NC(=O)CCl)c1 [PCM-0102410, COc1cccc(NC(=O)CCl)c1] | 0 | 0 | -15.888 | -15.888
O=C(CCl)NC(=O)NC1CC1 [PCM-0102411, O=C(CCl)NC(=O)NC1CC1] | 0 | 0 | -16.777 | -16.777
O=C(CCl)Nc1cc(Cl)ccc1C(=O)O [PCM-0102412, O=C(CCl)Nc1cc(Cl)ccc1C(=O)O] | 7 | 16 | -17.207 | -17.207
O=C(CCl)N1CCSc2ccccc21 [PCM-0102415, O=C(CCl)N1CCSc2ccccc21] | 16 | 10 | -15.511 | -15.511
CS(=O)(=O)N1CCN(C(=O)CCl)CC1 [PCM-0102417, CS(=O)(=O)N1CCN(C(=O)CCl)CC1] | 0 | 0 | -15.539 | -15.539
CC1CCc2c(sc(NC(=O)CCl)c2C#N)C1 (stereo not shown) [PCM-0102420, CC1CCc2c(sc(NC(=O)CCl)c2C#N)C1] | 0 | 47 | -16.452 | -16.452
O=C(CCl)N1CCCC(c2nc3ccccc3s2)C1 (stereo not shown) [PCM-0102425, O=C(CCl)N1CCCC(c2nc3ccccc3s2)C1] | 0 | 28 | -15.591 | -15.591
CC1(c2ccccc2)NC(=O)N(NC(=O)CCl)C1=O (stereo not shown) [PCM-0102428, CC1(c2ccccc2)NC(=O)N(NC(=O)CCl)C1=O] | 0 | 0 | -17.653 | -17.653
CC(C)c1cccc(NC(=O)CCl)c1 [PCM-0102429, CC(C)c1cccc(NC(=O)CCl)c1] | 23 | 10 | -15.994 | -15.994
O=C(CCl)NNC(=O)c1ccc(F)cc1 [PCM-0102430, O=C(CCl)NNC(=O)c1ccc(F)cc1] | 31 | 0 | -17.459 | -17.459
Cc1cc(CNC(=O)CCl)cc(C)c1O [PCM-0102431, Cc1cc(CNC(=O)CCl)cc(C)c1O] | 64 | 0 | -16.592 | -16.592
